Experimental data published in ChEMBL document CHEMBL5137065, “Recent Advances with KDM4 Inhibitors and Potential Applications” (J Med Chem, 2022).

Columns and labels:
[1] = target: T1, Lysine-specific demethylase 4A (Homo sapiens, UniProt O75164)
T1 sequence (O75164 whole entry): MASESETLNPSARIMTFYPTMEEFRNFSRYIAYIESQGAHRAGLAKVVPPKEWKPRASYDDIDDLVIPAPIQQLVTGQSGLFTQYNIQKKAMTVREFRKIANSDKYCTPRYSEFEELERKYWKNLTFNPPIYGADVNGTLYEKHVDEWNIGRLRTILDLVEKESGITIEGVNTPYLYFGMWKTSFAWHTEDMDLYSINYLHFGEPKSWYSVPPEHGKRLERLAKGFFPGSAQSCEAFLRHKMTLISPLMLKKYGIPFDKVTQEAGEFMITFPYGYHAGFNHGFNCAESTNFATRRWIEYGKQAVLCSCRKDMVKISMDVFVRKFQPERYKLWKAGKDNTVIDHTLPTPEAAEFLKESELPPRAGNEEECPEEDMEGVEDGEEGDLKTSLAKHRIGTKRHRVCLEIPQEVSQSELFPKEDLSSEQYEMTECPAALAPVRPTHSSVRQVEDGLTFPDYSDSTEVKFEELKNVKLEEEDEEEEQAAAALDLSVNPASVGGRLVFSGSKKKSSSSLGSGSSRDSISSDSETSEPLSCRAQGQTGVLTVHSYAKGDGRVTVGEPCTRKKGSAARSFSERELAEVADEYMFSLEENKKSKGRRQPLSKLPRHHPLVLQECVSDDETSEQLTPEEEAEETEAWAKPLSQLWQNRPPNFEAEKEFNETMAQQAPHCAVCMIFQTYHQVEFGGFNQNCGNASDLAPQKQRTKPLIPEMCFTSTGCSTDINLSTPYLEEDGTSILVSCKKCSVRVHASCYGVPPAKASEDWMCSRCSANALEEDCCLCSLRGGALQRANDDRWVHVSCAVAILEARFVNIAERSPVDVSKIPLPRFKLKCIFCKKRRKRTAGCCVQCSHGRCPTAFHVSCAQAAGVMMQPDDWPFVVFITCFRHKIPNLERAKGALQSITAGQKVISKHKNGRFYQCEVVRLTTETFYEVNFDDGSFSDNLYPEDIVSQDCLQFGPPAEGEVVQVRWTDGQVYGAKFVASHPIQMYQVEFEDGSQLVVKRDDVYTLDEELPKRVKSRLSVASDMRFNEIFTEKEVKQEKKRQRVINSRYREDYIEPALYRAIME

[2] = target: T2, Lysine-specific demethylase 4D (Homo sapiens, UniProt Q6B0I6); experiment: Inhibition of human KDM4D (1 to 378 residues) catalytic domain measured formaldehyde dehydrogenase (FDH)-coupled fluorescence assay
T2 sequence (Q6B0I6 whole entry): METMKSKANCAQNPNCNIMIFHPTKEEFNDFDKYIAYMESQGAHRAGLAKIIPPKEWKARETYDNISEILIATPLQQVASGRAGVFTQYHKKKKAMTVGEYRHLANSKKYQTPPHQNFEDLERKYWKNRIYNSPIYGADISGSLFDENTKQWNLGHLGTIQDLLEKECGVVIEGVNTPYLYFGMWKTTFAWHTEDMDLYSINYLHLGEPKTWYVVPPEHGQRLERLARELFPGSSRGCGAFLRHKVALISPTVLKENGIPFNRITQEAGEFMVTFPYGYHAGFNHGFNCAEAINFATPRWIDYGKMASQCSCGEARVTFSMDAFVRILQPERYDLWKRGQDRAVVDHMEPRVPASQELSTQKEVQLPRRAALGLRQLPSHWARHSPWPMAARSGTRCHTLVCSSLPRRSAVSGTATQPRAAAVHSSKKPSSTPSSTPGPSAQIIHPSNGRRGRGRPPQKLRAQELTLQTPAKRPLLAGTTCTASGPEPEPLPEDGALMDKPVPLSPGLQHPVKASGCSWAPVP

[3] = target: T3, Lysine-specific demethylase 4E (Homo sapiens, UniProt B2RXH2); experiment: Inhibition of human KDM4E (1 to 378 residues) catalytic domain measured formaldehyde dehydrogenase (FDH)-coupled fluorescence assay
T3 sequence (B2RXH2 whole entry): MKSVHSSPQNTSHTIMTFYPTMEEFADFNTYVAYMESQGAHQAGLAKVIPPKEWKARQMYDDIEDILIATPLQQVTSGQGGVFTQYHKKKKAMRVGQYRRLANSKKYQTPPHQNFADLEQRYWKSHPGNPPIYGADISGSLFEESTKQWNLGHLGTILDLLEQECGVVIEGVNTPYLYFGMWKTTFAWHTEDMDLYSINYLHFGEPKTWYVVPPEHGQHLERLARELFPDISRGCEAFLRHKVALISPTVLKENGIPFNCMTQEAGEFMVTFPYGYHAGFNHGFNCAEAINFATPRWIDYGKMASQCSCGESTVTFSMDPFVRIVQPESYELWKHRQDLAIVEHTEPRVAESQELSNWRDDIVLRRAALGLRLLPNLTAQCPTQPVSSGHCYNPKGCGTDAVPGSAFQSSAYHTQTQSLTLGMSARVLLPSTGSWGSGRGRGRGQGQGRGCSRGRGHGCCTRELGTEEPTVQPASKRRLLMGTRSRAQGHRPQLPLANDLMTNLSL

- IC50 [1]: 4 µM
- IC50 [2]: 4 µM
- IC50 [3]: 4 µM
SMILES: COC(=O)Cc1cc(O)n(-c2nc3ccccc3[nH]2)n1
